# According to article PMC12669732, “Synergistic targeting of cancer cells through simultaneous inhibition of key metabolic enzymes” (Cell Death and Differentiation, 2025):
# Legend:
# complex I (bovine heart) = biological target: T1, complex I (bovine heart) (Bos taurus, UniProt P03887+P17694+P42026); assay: spectrophotometric NADH oxidation, rotenone-sensitive complex I activity; assay type: biochemical; details: 120 uM NADH, 20 uM oxidized cytochrome c, pH 7.5, 37 °C; Q-site (ubiquinone reduction site), no effect at NADH site
# T1 construct: gene NDUFS2; native respiratory complex I (whole multi-subunit complex)
# T1 sequence (P17694 34-463): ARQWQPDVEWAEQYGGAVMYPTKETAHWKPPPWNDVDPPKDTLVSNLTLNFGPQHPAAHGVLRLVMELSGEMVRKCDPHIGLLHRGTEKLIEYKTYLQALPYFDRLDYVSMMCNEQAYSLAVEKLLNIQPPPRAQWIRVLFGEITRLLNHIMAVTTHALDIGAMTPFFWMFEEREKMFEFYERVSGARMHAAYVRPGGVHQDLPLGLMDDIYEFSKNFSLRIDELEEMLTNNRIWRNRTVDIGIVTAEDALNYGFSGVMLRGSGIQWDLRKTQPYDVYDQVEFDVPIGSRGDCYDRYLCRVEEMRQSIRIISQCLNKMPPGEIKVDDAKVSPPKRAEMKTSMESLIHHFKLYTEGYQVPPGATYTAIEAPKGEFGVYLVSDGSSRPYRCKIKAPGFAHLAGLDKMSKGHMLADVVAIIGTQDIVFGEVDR
# T1 sequence (P42026 38-216): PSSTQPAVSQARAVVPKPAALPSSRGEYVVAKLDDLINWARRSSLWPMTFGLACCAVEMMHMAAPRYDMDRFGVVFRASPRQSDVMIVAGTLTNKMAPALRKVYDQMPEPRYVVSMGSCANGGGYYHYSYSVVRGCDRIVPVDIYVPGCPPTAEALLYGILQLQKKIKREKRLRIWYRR
# T1 sequence (P03887 whole entry): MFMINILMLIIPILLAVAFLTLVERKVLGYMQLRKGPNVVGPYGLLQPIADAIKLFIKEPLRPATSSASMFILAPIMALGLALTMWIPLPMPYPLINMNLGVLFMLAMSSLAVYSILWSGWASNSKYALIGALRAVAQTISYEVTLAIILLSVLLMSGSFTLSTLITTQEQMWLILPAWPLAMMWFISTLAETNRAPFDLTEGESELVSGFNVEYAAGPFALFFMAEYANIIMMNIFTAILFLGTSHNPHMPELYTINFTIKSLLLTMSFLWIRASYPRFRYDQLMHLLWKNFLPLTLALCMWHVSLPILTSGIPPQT
# complex I = biological target: T2, complex I (Homo sapiens, UniProt O75251+O75306+P03886); assay: as above; assay type: biochemical; details: 120 uM NADH, 20 uM oxidized cytochrome c, pH 7.5, 37 °C; Q-site (ubiquinone reduction site), no effect at NADH site
# T2 construct: gene NDUFS2; native respiratory complex I (whole multi-subunit complex)
# T2 sequence (O75306 34-463): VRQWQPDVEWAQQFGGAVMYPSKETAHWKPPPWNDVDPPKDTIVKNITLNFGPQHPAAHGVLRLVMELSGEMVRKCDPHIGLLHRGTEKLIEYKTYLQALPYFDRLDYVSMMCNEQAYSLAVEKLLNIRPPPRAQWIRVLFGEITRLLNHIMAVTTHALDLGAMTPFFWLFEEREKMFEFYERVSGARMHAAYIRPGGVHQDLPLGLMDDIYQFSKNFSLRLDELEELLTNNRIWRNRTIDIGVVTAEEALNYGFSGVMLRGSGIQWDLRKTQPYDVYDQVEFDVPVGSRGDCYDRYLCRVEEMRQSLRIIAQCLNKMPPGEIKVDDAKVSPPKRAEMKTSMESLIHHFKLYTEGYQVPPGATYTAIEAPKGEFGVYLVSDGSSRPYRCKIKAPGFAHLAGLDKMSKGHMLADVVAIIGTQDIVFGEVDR
# T2 sequence (O75251 39-213): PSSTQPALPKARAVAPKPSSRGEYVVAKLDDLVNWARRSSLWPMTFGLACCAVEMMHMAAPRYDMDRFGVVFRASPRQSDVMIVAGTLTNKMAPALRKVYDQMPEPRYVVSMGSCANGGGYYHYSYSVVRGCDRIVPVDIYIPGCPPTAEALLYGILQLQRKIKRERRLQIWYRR
# T2 sequence (P03886 whole entry): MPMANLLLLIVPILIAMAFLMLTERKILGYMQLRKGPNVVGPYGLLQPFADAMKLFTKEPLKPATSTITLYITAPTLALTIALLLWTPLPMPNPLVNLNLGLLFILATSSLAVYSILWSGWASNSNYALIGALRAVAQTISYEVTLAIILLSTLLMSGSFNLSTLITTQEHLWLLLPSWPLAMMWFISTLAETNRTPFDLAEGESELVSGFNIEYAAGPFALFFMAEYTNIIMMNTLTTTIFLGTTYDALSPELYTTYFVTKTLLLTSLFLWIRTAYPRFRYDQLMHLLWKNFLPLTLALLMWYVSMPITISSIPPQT
smiles,measurement,setting,value
C[C@@H](C(=O)Nc1ccc(Cl)cc1)[C@H]1CC[C@@H](c2ccnc3ccc(F)cc32)CC1 [BMS-986205],complex I activity,complex I (bovine heart),"dose-dependent decrease of complex I activity in mitochondria from KRAS^G12V/MYC, HEK293T cells and bovine heart"
same,complex I activity,complex I,"dose-dependent decrease of complex I activity in mitochondria from KRAS^G12V/MYC, HEK293T cells and bovine heart"
